Patent publication US9868748B2, “Thiazolopyrrolidine inhibitors of ROR- γ” (Vitae Pharmaceuticals, Inc., priority 2013, dated 2018)

Tests used:
[1] = target: recombinant RORγ Ligand Binding Domain (LBD) protein (Homo sapiens (Human), UniProt P51449); assay: Radio-Ligand RORγ Binding Assay (Assay 1); conditions: competition with 25-hydroxy [26,27-3H]-cholesterol, SPA; Table 8; read-out: RORγ Binding Ki Range*
How it was run: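 Recombinant human RORγ ligand binding domain (6×His-GST fusion, 24 nM stock) competed with tritiated 25-hydroxycholesterol (8.6 nM stock) in HEPES buffer pH 7.4 with detergents and DTT; poly-Lys YSi SPA beads, room temperature, tritium SPA signal. Four-parameter IC50 from semi-log dilutions, normalised to DMSO and 10 μM T0901317, then Ki via KD equation.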

[2] = target: full-length RORγt in Jurkat cells (Homo sapiens (Human), UniProt P51449); assay: RORγt 5xRORE Assay in Jurkat Cells (Assay 2); assay type: cell-based; conditions: Nanoluc luciferase reporter, 16-18 hrs, Table 8, read-out: RORγt5X IC50 Range*
Chain of full-length RORγt in Jurkat cells (P51449 other isoform, or with tags, fused parts or gaps): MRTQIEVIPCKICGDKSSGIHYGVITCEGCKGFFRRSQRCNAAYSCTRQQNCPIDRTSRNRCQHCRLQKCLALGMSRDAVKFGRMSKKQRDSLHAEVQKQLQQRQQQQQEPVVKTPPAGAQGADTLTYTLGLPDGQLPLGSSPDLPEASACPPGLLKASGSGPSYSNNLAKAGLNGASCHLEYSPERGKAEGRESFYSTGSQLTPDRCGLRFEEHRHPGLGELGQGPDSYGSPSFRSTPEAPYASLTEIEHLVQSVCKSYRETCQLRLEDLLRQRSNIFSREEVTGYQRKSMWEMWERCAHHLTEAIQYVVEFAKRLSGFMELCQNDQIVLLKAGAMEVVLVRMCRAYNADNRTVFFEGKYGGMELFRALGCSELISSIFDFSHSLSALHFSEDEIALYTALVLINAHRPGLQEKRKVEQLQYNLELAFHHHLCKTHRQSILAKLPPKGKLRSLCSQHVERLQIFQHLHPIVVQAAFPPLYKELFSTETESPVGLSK
How it was run: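 Inverse agonist activity was read as NanoGlo luminescence from conditioned medium after 16–18 h compound exposure (37 °C, 0.1% DMSO final). The cells were Jurkat, transiently transfected with RORγt and a secNluc reporter carrying five RORE repeats, seeded 80,000 per well in delipidated-serum RPMI.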

Chain of recombinant RORγ Ligand Binding Domain (LBD) protein (P51449 269-508): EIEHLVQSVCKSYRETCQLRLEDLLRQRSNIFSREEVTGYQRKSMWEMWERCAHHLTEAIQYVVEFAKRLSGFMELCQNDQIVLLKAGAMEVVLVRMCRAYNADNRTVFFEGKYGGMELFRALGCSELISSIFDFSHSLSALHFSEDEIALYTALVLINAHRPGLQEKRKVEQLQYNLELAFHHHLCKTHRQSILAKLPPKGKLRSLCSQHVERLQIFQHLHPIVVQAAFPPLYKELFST

| Ki [1] | IC50 [2] | Structure (SMILES) |
| --- | --- | --- |
| < 100 nM | < 100 nM | CCS(=O)(=O)c1ccc(CC(=O)Nc2nc3c(s2)CN([C@H](C)c2ccc(Br)cc2F)[C@H]3C(C)C)cc1 [I-A24] |
| < 100 nM | < 100 nM | CCS(=O)(=O)c1ccc(CC(=O)Nc2nc3c(s2)CN([C@@H](C)c2ccc(Br)cc2F)[C@H]3C(C)C)cc1 [I-A25] |
| < 100 nM | < 100 nM | CCS(=O)(=O)c1ccc(CC(=O)Nc2nc3c(s2)CN(C[C@@H]2CC[C@@H](C(F)(F)F)OC2)[C@H]3C(C)C)cc1 [I-A26] |
| < 100 nM | < 100 nM | CCS(=O)(=O)c1ccc(CC(=O)Nc2nc3c(s2)CN(C[C@H]2CC[C@H](C(F)(F)F)OC2)[C@H]3C(C)C)cc1 [I-A27] |
| < 100 nM | < 100 nM | CCS(=O)(=O)c1ccc(CC(=O)Nc2nc3c(s2)CN(C[C@H]2CC[C@H](OC(F)F)CC2)[C@H]3C(C)C)cc1 [I-A28] |
| < 100 nM | < 100 nM | CCS(=O)(=O)c1ccc(CC(=O)Nc2nc3c(s2)CN(C[C@@H]2CC[C@@H](C(F)(F)F)N(C)C2)[C@H]3C(C)C)cc1 [I-A29] |
| < 100 nM | < 100 nM | CCS(=O)(=O)c1ccc(CC(=O)Nc2nc3c(s2)CN(Cc2ccc(C(F)(F)F)c(OC)n2)[C@H]3C(C)C)cc1 [I-A31] |
| < 100 nM | < 100 nM | CCS(=O)(=O)c1ccc(CC(=O)Nc2nc3c(s2)CN(C(C)c2c(F)cc(Cl)cc2F)[C@H]3C(C)C)cc1 (stereo partly shown) [I-A32] |
| < 100 nM | < 100 nM | CCS(=O)(=O)c1ccc(CC(=O)Nc2nc3c(s2)CN(Cc2ccc(C(F)(F)F)c(C)n2)[C@H]3C(C)C)cc1 [I-A33] |
| < 100 nM | < 100 nM | CCS(=O)(=O)c1ccc(CC(=O)Nc2nc3c(s2)CN([C@H](C)c2ccc(C(F)(F)F)cc2)[C@H]3C(C)C)cc1 [I-A34] |
| < 100 nM | < 100 nM | CCS(=O)(=O)c1ccc(CC(=O)Nc2nc3c(s2)CN([C@@H](C)c2ccc(C(F)(F)F)cc2)[C@H]3C(C)C)cc1 [I-A35] |
| < 100 nM | < 100 nM | CCS(=O)(=O)c1ccc(CC(=O)Nc2nc3c(s2)CN([C@H](C)c2ccc(C(F)(F)F)cc2F)[C@H]3C(C)C)cc1 [I-A36] |
| < 100 nM | < 100 nM | CCS(=O)(=O)c1ccc(CC(=O)Nc2nc3c(s2)CN([C@@H](C)c2ccc(C(F)(F)F)cc2F)[C@H]3C(C)C)cc1 [I-A37] |
| < 100 nM | < 100 nM | CCS(=O)(=O)c1ccc(CC(=O)Nc2nc3c(s2)CN([C@H](C)c2ccc(Cl)cc2F)[C@H]3C(C)C)cc1 [I-A38] |
| < 100 nM | < 100 nM | CCS(=O)(=O)c1ccc(CC(=O)Nc2nc3c(s2)CN([C@@H](C)c2ccc(Cl)cc2F)[C@H]3C(C)C)cc1 [I-A39] |
| < 100 nM | < 100 nM | CCS(=O)(=O)c1ccc(CC(=O)Nc2nc3c(s2)CN(Cc2ccc(-c4nnnn4C)cc2)[C@H]3C(C)C)cc1 [I-A40] |
| < 100 nM | < 100 nM | CCS(=O)(=O)c1ccc(CC(=O)Nc2nc3c(s2)CN(C[C@H]2CN(C(=O)OC(C)(C)C)CCO2)[C@H]3C(C)C)cc1 [I-A41] |
| < 100 nM | < 100 nM | CCS(=O)(=O)c1ccc(CC(=O)Nc2nc3c(s2)CN(Cc2ccc(-c4nnn(C)n4)cc2)[C@H]3C(C)C)cc1 [I-A42] |
| < 100 nM | < 100 nM | CCS(=O)(=O)c1ccc(CC(=O)Nc2nc3c(s2)CN(C[C@@H]2CN(C(=O)OC(C)(C)C)CCO2)[C@H]3C(C)C)cc1 [I-A43] |
| < 100 nM | < 100 nM | CCS(=O)(=O)c1ccc(CC(=O)Nc2nc3c(s2)CN(C[C@H]2CC[C@H](C(=O)OC)CC2)[C@H]3C(C)C)cc1 [I-A44] |
| < 100 nM | < 100 nM | CCS(=O)(=O)c1ccc(CC(=O)Nc2nc3c(s2)CN(Cc2ccc(C(F)(F)F)cc2C#N)[C@H]3C(C)C)cc1 [I-A45] |
| < 100 nM | < 100 nM | CCS(=O)(=O)c1ccc(CC(=O)Nc2nc3c(s2)CN(Cc2ncc(C#N)cc2F)[C@H]3C(C)C)cc1 [I-A46] |
| < 100 nM | < 100 nM | CCS(=O)(=O)c1ccc(CC(=O)Nc2nc3c(s2)CN([C@H](C)c2ccc(Cl)cn2)[C@H]3C(C)C)cc1 [I-A47] |
| < 100 nM | < 100 nM | CCS(=O)(=O)c1ccc(CC(=O)Nc2nc3c(s2)CN([C@@H](C)c2ccc(Cl)cn2)[C@H]3C(C)C)cc1 [I-A48] |
| < 100 nM | < 100 nM | CCS(=O)(=O)c1ccc(CC(=O)Nc2nc3c(s2)CN(Cc2cc(C)c(C#N)cn2)[C@H]3C(C)C)cc1 [I-A49] |
| < 100 nM | < 100 nM | CCS(=O)(=O)c1ccc(CC(=O)Nc2nc3c(s2)CN(Cc2ccc(C#N)c(C)n2)[C@H]3C(C)C)cc1 [I-A50] |
| < 100 nM | < 100 nM | CCS(=O)(=O)c1ccc(CC(=O)Nc2nc3c(s2)CN(Cc2ccc(C#N)c(OC)n2)[C@H]3C(C)C)cc1 [I-A51] |

| Ki [1] | IC50 [2] | Structure (SMILES) |
| --- | --- | --- |
| < 100 nM | < 100 nM | CCS(=O)(=O)c1ccc(CC(=O)Nc2nc3c(s2)CN([C@H](C)c2ncc(Cl)cc2F)[C@H]3C(C)C)cc1 [I-A53] |
| < 100 nM | < 100 nM | CCS(=O)(=O)c1ccc(CC(=O)Nc2nc3c(s2)CN(Cc2ccc(OC(F)F)cn2)[C@H]3C(C)C)cc1 [I-A54] |
| < 100 nM | < 100 nM | CCS(=O)(=O)c1ccc(CC(=O)Nc2nc3c(s2)CN(Cc2cnc(C(F)(F)F)nc2)[C@H]3C(C)C)cc1 [I-A58] |
| < 100 nM | < 100 nM | CCS(=O)(=O)c1ccc(CC(=O)Nc2nc3c(s2)CN(Cc2ccc(C4CC4)cc2)[C@H]3C(C)C)cc1 [I-A59] |
| < 100 nM | < 100 nM | CCS(=O)(=O)c1ccc(CC(=O)Nc2nc3c(s2)CN(Cc2ccc(C(=O)OC)cc2)[C@H]3C(C)C)cc1 [I-A60] |
| < 100 nM | < 100 nM | CCS(=O)(=O)c1ccc(CC(=O)Nc2nc3c(s2)CN(Cc2ccc(C(F)F)cc2)[C@H]3C(C)C)cc1 [I-A61] |
| < 100 nM | < 100 nM | CCS(=O)(=O)c1ccc(CC(=O)Nc2nc3c(s2)CN(Cc2ccc(C(F)(F)F)nc2)[C@H]3C(C)C)cc1 [I-A62] |
| < 100 nM | < 100 nM | CCc1ccc(CN2Cc3sc(NC(=O)Cc4ccc(S(=O)(=O)CC)cc4)nc3[C@@H]2C(C)C)cc1 [I-A63] |
| < 100 nM | < 100 nM | CCS(=O)(=O)c1ccc(CC(=O)Nc2nc3c(s2)CN(Cc2ccc(C)cc2)[C@H]3C(C)C)cc1 [I-A64] |
| < 100 nM | < 100 nM | CC(C)[C@H]1c2nc(NC(=O)Cc3ccc(S(C)(=O)=O)cc3)sc2CN1Cc1ccc(Cl)cc1 [I-B1, (S)—N-(5-(4-chlorobenzyl)-4-isopropyl-5,6-dihydro-4H-pyrrolo[3,4-d]thiazol-2-yl)-2-(4-(methylsulfonyl)phenyl)acetamide] |
| < 100 nM | < 100 nM | CC(C)[C@H]1c2nc(NC(=O)Cc3ccc(S(C)(=O)=O)cc3)sc2CN1Cc1ccc(C(F)(F)F)cn1 [I-B4] |
| < 100 nM | < 100 nM | CC(C)[C@H]1c2nc(NC(=O)Cc3ccc(S(C)(=O)=O)cc3)sc2CN1Cc1ccc(C(F)(F)F)nc1 [I-B5] |
| < 100 nM | < 100 nM | Cc1cc(CN2Cc3sc(NC(=O)Cc4ccc(S(C)(=O)=O)cc4)nc3[C@@H]2C(C)C)ccc1C#N [I-B7] |
| < 100 nM | < 100 nM | CC(C)[C@H]1c2nc(NC(=O)Cc3ccc(S(C)(=O)=O)cc3)sc2CN1Cc1ccc(C#N)c(Cl)c1 [I-B8] |
| < 100 nM | < 100 nM | CC(C)[C@H]1c2nc(NC(=O)Cc3ccc(S(C)(=O)=O)cc3)sc2CN1Cc1ccc(-c2nnn(C)n2)cc1 [I-B9] |
| < 100 nM | < 100 nM | CC(C)[C@H]1c2nc(NC(=O)Cc3ccc(S(C)(=O)=O)cc3)sc2CN1[C@@H](C)c1ccc(C#N)cc1Cl [I-B10] |
| < 100 nM | < 100 nM | CC(C)[C@H]1c2nc(NC(=O)Cc3ccc(S(C)(=O)=O)cc3)sc2CN1[C@H](C)c1ccc(C#N)c(F)c1 [I-B11] |
| < 100 nM | < 100 nM | CC(C)[C@H]1c2nc(NC(=O)Cc3ccc(S(C)(=O)=O)cc3)sc2CN1[C@@H](C)c1ccc(C#N)c(F)c1 [I-B12] |
| < 100 nM | < 100 nM | Cc1nc(C(F)(F)F)ccc1CN1Cc2sc(NC(=O)Cc3ccc(S(C)(=O)=O)cc3)nc2[C@@H]1C(C)C [I-B13] |
| < 100 nM | < 100 nM | CC(C)[C@H]1c2nc(NC(=O)Cc3ccc(S(C)(=O)=O)cc3)sc2CN1[C@H](C)c1ccc(C#N)cc1 [I-B14] |
| < 100 nM | < 100 nM | CC(C)[C@H]1c2nc(NC(=O)Cc3ccc(S(C)(=O)=O)cc3)sc2CN1[C@@H](C)c1ccc(C#N)cc1 [I-B15] |
| < 100 nM | < 100 nM | CC(C)[C@H]1c2nc(NC(=O)Cc3ccc(S(C)(=O)=O)cc3)sc2CN1Cc1ccc(C#N)cc1Cl [I-B16] |
| < 100 nM | < 100 nM | CC(C)[C@H]1c2nc(NC(=O)Cc3ccc(S(C)(=O)=O)cc3)sc2CN1Cc1ccc(C#N)cc1F [I-B17] |
| < 100 nM | < 100 nM | CC(C)[C@H]1c2nc(NC(=O)Cc3ccc(S(C)(=O)=O)cc3)sc2CN1Cc1ccc(C#N)cc1 [I-B18] |
| < 100 nM | < 100 nM | CC(C)[C@H]1c2nc(NC(=O)Cc3ccc(S(C)(=O)=O)cc3)sc2CN1Cc1ccc(C(F)(F)F)cc1 [I-B19] |
| < 100 nM | < 100 nM | CCS(=O)(=O)c1ccc(CC(=O)Nc2nc3c(s2)CN(Cc2ccc(Cl)cc2)[C@H]3C(C)C)nc1 [I-C1, (S)—N-(5-(4-chlorobenzyl)-4-isopropyl-5,6-dihydro-4H-pyrrolo[3,4-d]thiazol-2-yl)-2-(5-(ethylsulfonyl)pyridin-2-yl)acetamide] |
